Assay results as given in ChEMBL document CHEMBL1158421, “Inhibitory effect of a dimerization-arm-mimetic peptide on EGF receptor activation” (Bioorg Med Chem Lett, 2009).
Active and inactive are the calls of the source. No cut-off for these calls is given here. Where a SMILES comes first, the peptide text is derived from it. Bridges are numbered along the chain shown (N, C = ends).

Legend:
Format in all cases: cell-based
Conditions in all cases: A-431
[1] = target: Epidermal growth factor receptor (Homo sapiens) (UniProt P00533); assay: Reduction in EGF-induced dimerization of human EGFR in A431 cells at 0.01 to 1 uM preincubated for 30 mins before EGF challenge by SDS-PAGE
[2] = target: Epidermal growth factor receptor (Homo sapiens) (UniProt P00533); assay: Inhibition of EGF-induced dimerization of human EGFR in A431 cells at >1 uM preincubated for 30 mins before EGF challenge by SDS-PAGE
[3] = target: Epidermal growth factor receptor (Homo sapiens) (UniProt P00533); assay: Reduction in EGF-induced dimerization of human EGFR in A431 cells at 1 uM preincubated for 30 mins before EGF challenge by SDS-PAGE relative to control; parameters: scale not given: the % may be the effect or the level left
[4] = target: Epidermal growth factor receptor (Homo sapiens) (UniProt P00533); assay: Inhibition of EGF-stimulated human EGFR in intact A431 cells assessed as suppression of residual autophosphorylation at 1 uM preincubated for 3 hrs before EGF challenge by SDS-PAGE relative to control
[5] = target: Epidermal growth factor receptor (Homo sapiens) (UniProt P00533); assay: Inhibition of EGF-stimulated human EGFR in intact A431 cells assessed as suppression of residual autophosphorylation at 10 uM preincubated for 3 hrs before EGF challenge by SDS-PAGE relative to control
[6] = target: Epidermal growth factor receptor (Homo sapiens) (UniProt P00533); assay: Reduction in EGF-induced dimerization of human EGFR in A431 cells preincubated for 30 mins before EGF challenge by SDS-PAGE
[7] = target: Epidermal growth factor receptor (Homo sapiens) (UniProt P00533); assay: Inhibition of EGF-stimulated human EGFR in intact A431 cells assessed as suppression of residual autophosphorylation at 0.1 uM preincubated for 3 hrs before EGF challenge by SDS-PAGE relative to control

Chain of Epidermal growth factor receptor (Homo sapiens) (P00533 whole entry): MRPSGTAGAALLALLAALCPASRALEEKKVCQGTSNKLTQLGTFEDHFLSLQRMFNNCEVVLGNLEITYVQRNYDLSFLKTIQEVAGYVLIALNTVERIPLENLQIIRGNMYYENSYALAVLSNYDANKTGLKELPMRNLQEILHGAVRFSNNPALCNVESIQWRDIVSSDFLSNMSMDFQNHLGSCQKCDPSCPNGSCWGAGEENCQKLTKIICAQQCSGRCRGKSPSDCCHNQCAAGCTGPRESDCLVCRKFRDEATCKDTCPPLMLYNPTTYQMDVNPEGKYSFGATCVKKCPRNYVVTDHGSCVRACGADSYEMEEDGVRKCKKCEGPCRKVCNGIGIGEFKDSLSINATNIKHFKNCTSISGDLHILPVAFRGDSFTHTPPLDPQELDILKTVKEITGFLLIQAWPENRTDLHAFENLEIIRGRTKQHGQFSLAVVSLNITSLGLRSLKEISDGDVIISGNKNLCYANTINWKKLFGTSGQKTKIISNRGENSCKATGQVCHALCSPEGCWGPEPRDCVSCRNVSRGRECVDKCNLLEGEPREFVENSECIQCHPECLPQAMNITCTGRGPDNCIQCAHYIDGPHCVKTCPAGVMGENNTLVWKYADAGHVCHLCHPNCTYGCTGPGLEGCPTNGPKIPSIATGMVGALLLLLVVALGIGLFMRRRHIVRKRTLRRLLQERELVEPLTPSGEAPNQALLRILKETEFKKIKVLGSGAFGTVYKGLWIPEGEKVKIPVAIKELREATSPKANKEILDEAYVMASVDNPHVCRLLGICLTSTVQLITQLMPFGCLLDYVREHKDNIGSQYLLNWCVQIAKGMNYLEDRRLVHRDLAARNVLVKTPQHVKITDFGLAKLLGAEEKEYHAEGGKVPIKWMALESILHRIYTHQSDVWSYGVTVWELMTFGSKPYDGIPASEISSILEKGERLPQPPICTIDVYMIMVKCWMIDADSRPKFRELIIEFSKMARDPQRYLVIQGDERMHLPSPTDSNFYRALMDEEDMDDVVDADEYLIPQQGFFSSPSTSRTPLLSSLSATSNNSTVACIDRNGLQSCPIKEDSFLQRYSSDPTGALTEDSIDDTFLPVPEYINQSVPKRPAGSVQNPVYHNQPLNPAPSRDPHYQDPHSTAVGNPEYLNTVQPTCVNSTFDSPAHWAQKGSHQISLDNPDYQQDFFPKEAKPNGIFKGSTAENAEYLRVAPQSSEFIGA

Structure (SMILES) | Activity [1] | Activity [2] | Activity [3] | Activity [4] | Activity [5] | Activity [6] | Activity [7]
CSCC[C@H](NC(=O)[C@H](CCC(N)=O)NC(=O)[C@H](Cc1ccc(O)cc1)NC(=O)[C@@H](NC(=O)[C@@H](NC(=O)[C@@H]1CCCN1C(=O)[C@H](CC(N)=O)NC(=O)[C@H](Cc1ccc(O)cc1)NC(=O)[C@@H](N)CS)[C@@H](C)O)[C@@H](C)O)C(=O)N[C@@H](CS)C(=O)O (H-CYNPTTYQMC-OH) | inactive | – | – | – | – | – | –
CSCC[C@@H]1NC(=O)[C@H](CCC(N)=O)NC(=O)[C@H](Cc2ccc(O)cc2)NC(=O)[C@H]([C@@H](C)O)NC(=O)[C@H]([C@@H](C)O)NC(=O)[C@@H]2CCCN2C(=O)[C@H](CC(N)=O)NC(=O)[C@H](Cc2ccc(O)cc2)NC(=O)[C@@H](N)CSSC[C@@H](C(=O)O)NC1=O (H-CYNPTTYQMC-OH; disulfide 1-10) | – | inactive | < 80% | 51% | 30% | Dose-dependent effect | 61%
